Results reported in ChEMBL document CHEMBL1201862, “PubChem BioAssay data set” (2004).
One block for each compound: values may come before it. Calls of active or inactive are those of the source.

Columns and labels:
[1] = biological target: G-protein coupled receptor 55 (Homo sapiens, UniProt Q9Y2T6); assay: GPR55 antagonists blocking LPI-driven arrestin recruitment, primary screen, imaging, U2OS, beta-arrestin-GFP, LPI agonist (AID 2013); type: functional;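 note: antagonist potency measured as reduced agonist-driven arrestin aggregation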
Chain of G-protein coupled receptor 55 (Q9Y2T6 whole entry): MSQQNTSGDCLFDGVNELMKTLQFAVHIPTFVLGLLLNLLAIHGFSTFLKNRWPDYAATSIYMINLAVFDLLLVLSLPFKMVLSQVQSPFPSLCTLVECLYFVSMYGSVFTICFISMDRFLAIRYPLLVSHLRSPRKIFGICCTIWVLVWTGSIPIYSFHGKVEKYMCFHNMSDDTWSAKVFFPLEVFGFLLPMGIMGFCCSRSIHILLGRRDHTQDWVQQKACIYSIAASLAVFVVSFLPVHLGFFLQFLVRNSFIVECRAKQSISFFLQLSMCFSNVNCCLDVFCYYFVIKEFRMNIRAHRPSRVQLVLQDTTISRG

[2] = HEp-2 cell cytotoxicity, dose response, cytotoxicity control for RSV inhibitor project, HTS (AID 2410); type: functional; conditions: human respiratory syncytial virus
[3] = biological target: Nucleotide-binding oligomerization domain-containing protein 2 (Homo sapiens, UniProt Q9HC29); assay: NOD2 signaling inhibitors, cell-based, luminescence, uHTS, HEK293 (AID 1566); type: functional
Chain of Nucleotide-binding oligomerization domain-containing protein 2 (Q9HC29 whole entry, the tested form may be a part): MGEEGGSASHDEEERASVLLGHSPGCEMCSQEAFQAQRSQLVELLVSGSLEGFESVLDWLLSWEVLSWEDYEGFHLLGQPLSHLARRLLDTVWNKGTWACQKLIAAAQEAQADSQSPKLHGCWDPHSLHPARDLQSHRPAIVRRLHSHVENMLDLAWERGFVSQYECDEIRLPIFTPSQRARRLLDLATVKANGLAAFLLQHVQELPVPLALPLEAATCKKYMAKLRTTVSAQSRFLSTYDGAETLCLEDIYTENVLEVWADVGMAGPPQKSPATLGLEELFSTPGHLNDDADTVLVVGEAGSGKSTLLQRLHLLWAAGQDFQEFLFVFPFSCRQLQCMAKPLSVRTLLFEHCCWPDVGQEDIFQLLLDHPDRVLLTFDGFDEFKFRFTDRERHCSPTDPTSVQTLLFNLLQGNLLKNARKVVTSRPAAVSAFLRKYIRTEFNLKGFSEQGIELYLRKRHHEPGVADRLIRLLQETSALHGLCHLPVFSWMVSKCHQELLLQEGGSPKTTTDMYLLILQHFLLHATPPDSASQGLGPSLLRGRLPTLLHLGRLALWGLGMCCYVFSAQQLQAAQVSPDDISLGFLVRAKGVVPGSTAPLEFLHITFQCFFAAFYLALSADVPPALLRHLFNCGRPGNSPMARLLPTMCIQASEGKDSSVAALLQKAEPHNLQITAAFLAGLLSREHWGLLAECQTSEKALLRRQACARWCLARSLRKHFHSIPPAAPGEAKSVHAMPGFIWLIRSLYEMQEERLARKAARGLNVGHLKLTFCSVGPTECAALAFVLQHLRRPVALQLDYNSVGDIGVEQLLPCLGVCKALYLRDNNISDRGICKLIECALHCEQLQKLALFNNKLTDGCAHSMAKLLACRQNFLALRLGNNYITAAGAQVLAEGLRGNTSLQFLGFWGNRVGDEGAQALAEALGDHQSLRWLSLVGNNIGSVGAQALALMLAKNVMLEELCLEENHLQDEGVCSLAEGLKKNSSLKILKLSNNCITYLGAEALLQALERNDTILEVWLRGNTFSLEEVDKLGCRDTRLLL

[4] = biological target: T1, Rac GTPase-activating protein 1 (Homo sapiens, UniProt Q9H0H5); assay: MgcRacGAP GTPase-activating activity inhibitors, confirmation, biochemical, ADP Hunter fluorescence, primary and confirmatory (AID 624330); type: functional
T1 sequence (Q9H0H5 whole entry): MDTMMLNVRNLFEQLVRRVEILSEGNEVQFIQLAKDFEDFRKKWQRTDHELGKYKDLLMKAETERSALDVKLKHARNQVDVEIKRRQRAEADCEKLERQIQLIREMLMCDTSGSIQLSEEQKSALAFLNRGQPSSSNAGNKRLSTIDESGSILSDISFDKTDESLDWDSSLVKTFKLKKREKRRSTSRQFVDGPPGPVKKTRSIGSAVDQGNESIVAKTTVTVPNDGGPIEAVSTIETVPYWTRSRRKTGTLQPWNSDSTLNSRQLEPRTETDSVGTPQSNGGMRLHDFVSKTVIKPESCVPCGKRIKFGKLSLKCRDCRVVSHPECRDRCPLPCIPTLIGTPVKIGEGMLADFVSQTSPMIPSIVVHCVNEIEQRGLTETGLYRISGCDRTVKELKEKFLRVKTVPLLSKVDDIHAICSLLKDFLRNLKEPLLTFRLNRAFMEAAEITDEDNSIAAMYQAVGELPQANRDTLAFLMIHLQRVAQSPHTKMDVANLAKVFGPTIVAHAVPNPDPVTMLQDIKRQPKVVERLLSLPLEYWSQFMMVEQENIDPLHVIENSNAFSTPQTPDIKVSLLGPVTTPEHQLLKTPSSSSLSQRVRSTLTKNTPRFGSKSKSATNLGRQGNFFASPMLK

HEK293 [5] = assay: cells; type: functional, cell-based; conditions: Homo sapiens
HEK293 [6] = assay: cells; type: functional, cell-based; conditions: Homo sapiens; remark: listed apart in the source
HEK293 [7] = assay: cells; type: functional, cell-based; conditions: Homo sapiens; remark: listed apart in the source
HEK293 [8] = assay: NOD2 signaling inhibitors in MDP-stimulated cells, cell-based, uHTS, luminescence (AID 2001); type: functional; conditions: Homo sapiens
HEK293 [9] = assay: NOD1 signaling inhibitors, primary screen, cell-based, luminescence, uHTS (AID 1578); type: functional; conditions: Homo sapiens
[10] = C. albicans growth with fluconazole, confirmation, fluorescence, retest (AID 2467); type: functional, cell-based
[11] = NIH-3T3 fibroblast cytotoxicity, dose response, cytotoxicity control, cell-based, fluorescence, Alamar Blue, secondary assay (AID 2327); type: functional;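 note: NIH-3T3 mouse fibroblasts cultured with fluconazole at 8 µg/mL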
Coagulation factor XII = biological target: T2, Coagulation factor XII (Homo sapiens, UniProt P00748); type: functional;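 note: activated factor XIIa alpha cleaving a fluorogenic AMC peptide substrate; inhibitor potency from loss of enzyme activity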
T2 sequence (P00748 whole entry): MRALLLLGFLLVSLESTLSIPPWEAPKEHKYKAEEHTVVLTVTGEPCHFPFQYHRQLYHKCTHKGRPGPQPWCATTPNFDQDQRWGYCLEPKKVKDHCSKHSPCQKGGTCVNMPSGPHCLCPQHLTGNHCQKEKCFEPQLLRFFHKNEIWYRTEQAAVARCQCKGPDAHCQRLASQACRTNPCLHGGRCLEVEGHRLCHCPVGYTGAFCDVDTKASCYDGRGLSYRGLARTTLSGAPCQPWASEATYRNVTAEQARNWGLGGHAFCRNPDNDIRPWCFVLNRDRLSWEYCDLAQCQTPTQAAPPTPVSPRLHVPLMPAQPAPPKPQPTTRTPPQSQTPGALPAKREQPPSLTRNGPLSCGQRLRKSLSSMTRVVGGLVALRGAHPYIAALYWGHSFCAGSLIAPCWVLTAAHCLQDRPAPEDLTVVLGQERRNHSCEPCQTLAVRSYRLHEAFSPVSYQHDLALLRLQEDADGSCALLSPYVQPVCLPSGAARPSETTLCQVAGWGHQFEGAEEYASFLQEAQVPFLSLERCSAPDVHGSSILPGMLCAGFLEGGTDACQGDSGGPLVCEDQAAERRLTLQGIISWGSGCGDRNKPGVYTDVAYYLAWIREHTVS

[12] = cytotoxicity toward NIH3T3 fibroblasts, dose response, counter-screen, cell-based, ATP luminescence, mouse fibroblasts (AID 2010); type: functional;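 note: cells exposed to compound for about 90 hours before reading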
[13] = inhibitors of intracellular T. cruzi replication, confirmation, NIH3T3 host cells, beta-gal luminescence (AID 2044); type: functional, cell-based;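 note: intracellular parasites grown in NIH/3T3 mouse fibroblasts as host cells; luminescent beta-galactosidase reporter signal from transgenic T. cruzi replicating inside host cells; inhibitors lower the luminescence signal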
[14] = biological target: T3, Ubiquitin-conjugating enzyme E2 N (Homo sapiens, UniProt P61088); type: functional;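 note: Dose-response confirmation in a TR-FRET assay detecting UBC13-driven polyubiquitin chain formation, inhibition measured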
T3 sequence (P61088 whole entry): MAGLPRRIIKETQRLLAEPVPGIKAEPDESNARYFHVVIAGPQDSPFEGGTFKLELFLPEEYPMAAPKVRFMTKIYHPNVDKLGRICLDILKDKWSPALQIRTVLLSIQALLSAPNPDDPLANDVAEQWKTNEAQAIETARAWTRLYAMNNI

[15] = biological target: DNA dC->dU-editing enzyme APOBEC-3G (Homo sapiens, UniProt Q9HC16); type: functional;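 note: Dose-response counterscreen measuring inhibition of APOBEC3G DNA deaminase activity, run while confirming APOBEC3A inhibitors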
Chain of DNA dC->dU-editing enzyme APOBEC-3G (Q9HC16 whole entry): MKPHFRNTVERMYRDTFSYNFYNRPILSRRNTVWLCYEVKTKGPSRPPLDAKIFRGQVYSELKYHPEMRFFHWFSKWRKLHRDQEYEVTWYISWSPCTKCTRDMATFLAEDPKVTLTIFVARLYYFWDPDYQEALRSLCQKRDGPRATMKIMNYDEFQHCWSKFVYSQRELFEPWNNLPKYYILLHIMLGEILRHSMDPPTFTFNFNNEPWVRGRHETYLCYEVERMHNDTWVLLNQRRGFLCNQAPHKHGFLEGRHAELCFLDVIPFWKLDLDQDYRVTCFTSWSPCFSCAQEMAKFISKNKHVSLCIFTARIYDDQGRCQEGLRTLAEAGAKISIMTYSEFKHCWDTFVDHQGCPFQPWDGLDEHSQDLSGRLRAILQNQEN

[16] = biological target: DNA dC->dU-editing enzyme APOBEC-3A (Homo sapiens, UniProt P31941); assay: Dose Response confirmation of small molecule APOBEC3A DNA Deaminase Inhibitors via a fluorescence-based single-stranded DNA deaminase assay. [Related pubchem assays (depositor defined):AID493011, AID493024]; type: functional
Chain of DNA dC->dU-editing enzyme APOBEC-3A (P31941 whole entry): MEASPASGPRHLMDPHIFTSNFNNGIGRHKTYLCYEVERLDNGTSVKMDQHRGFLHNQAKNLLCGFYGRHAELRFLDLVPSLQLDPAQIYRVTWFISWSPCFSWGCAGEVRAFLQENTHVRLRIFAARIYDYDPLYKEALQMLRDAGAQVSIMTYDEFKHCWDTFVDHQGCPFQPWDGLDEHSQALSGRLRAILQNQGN

SMILES: COc1cc(NS(=O)(=O)c2ccc(Nc3nc(-c4ccccc4)cs3)cc2)nc(OC)n1
IC50 [1]: 4.49 µM (active) | CC50 [2]: 11.3 µM (active)

SMILES: Cc1ccc(O)c(/N=C/c2cc(Cc3ccccc3)cc([N+](=O)[O-])c2O)c1
EC50 [3]: 9.92 µM (active) | IC50 [4]: 37.8 µM (active) | IC50 (HEK293 [5]): > 20 µM (inactive) | IC50 (HEK293 [6]): > 20 µM (inactive) | IC50 (HEK293 [7]): > 20 µM (inactive) | IC50 (HEK293 [8]): 12.4 µM (inactive) | EC50 (HEK293 [9]): 6.21 µM (active) | EC50 [10]: 3.37 µM (active) | EC50 [11]: 13.8 µM (active)

SMILES: COc1ccc(/C=N/NS(=O)(=O)c2ccc(F)cc2)cc1COc1cc(F)ccc1[N+](=O)[O-]
EC50 [12]: > 60 µM (inconclusive) | EC50 [13]: 2.19 µM (active) | EC50 [3]: > 20 µM (inactive) | IC50 (HEK293 [5]): > 20 µM (inactive) | IC50 (HEK293 [6]): 6.45 µM (active) | IC50 (HEK293 [7]): > 20 µM (inactive) | IC50 (HEK293 [8]): > 20 µM (inactive) | EC50 (HEK293 [9]): > 20 µM (inactive)

SMILES: O=C(/C=C/c1ccco1)N1CCN(S(=O)(=O)c2cccc([N+](=O)[O-])c2)CC1
IC50 [15]: 23.6 µM (active) | IC50 [16]: 15.5 µM (active)

Further lines, results first:

IC50 [4]: 105 µM (active) | IC50 (Coagulation factor XII): > 50 µM (inactive)
SMILES: COCCNCC(=O)Nc1nc(C)cs1

IC50 [14]: > 20 µM (inactive)
SMILES: Cn1c(=O)c2c(ncn2Cc2ccccc2)n(C)c1=O

IC50 [1]: 3.14 µM (active)
SMILES: CNC(=O)c1ccc(NC(=O)CC23CC4CC(CC(C4)C2)C3)cc1

IC50 (Coagulation factor XII): > 50 µM (inactive)
SMILES: CCNc1ccc2c(Cl)cc(=O)oc2c1
